{"source": "patent US20130295115A1", "about": "“COMPOSITIONS AND METHODS FOR TREATING […]” (priority 2010, published 2013)", "key": {"[1]": {"molecular_target": "human Natural Resistance-Associated Macrophage Protein 2 (hNRAMP2) (human) (UniProt P49281)", "sequence (P49281 whole entry)": "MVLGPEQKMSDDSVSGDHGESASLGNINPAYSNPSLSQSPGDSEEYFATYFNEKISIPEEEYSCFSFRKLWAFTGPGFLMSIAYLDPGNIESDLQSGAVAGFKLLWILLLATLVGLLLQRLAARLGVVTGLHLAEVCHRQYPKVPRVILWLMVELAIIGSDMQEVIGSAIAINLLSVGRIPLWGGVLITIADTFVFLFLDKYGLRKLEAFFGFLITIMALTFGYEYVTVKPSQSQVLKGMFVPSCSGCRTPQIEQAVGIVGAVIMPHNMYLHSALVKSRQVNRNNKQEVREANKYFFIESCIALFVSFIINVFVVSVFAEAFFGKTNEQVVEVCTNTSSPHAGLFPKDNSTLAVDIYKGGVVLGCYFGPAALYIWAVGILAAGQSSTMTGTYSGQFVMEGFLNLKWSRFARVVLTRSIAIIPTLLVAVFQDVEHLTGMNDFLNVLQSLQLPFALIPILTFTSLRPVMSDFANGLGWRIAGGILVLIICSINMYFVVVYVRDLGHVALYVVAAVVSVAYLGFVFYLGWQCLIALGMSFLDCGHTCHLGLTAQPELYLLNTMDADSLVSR", "test": "cell-based or functional assay"}, "Sindbis virus [2]": {"test_system": "Sindbis virus", "type": "cell-based"}, "hNRAMP2": {"test_system": "hNRAMP2", "test": "NRAMP2 expression (RT-PCR) in U2OS cells with iron", "type": "cell-based, human", "description": "Cells were treated with 160 μM Ammonium Iron(III) Citrate for three days prior to and throughout the infection.\nTotal RNA was purified using Trizol and used for reverse transcription with random priming and MLV-RT (Invitrogen) followed by PCR using the indicated primers."}, "West Nile virus": {"test_system": "West Nile virus", "type": "cell-based"}, "[3]": {"test_system": "Venezuelan Equine Encephalitis virus (VEE)", "type": "cell-based"}, "Ross River virus": {"test_system": "Ross River virus", "type": "cell-based", "details": "iron treatment (not shown)"}, "[4]": {"test_system": "Vesicular Stomatitis Virus", "type": "cell-based"}, "Sindbis virus / NRAMP2": {"molecular_target": "Sindbis virus / NRAMP2 (Homo sapiens, UniProt P49281)", "sequence (P49281 whole entry, looked up)": "as the sequence (P49281 whole entry) above", "type": "cell-based"}, "Sindbis virus [5]": {"test_system": "Sindbis virus", "type": "cell-based", "remark": "listed apart in the source"}}}
{"molecule": "Sindbis virus (biotinylated infectious virus particles)", "values": [{"measurement": "percentage of infected cells on NRAMP2 over-expression", "setting": "[1]", "result": 2, "unit": "fold"}]}
{"molecule": "Cl.N", "note": "[ammonium chloride]", "values": [{"measurement": "Sindbis infection", "setting": "Sindbis virus [2]", "result": "inhibited infection"}]}
{"molecule": "Ammonium Iron(III) Citrate", "values": [{"measurement": "NRAMP2 expression", "setting": "hNRAMP2; NRAMP2 over-expressing cells treated with iron (FIG. 7A)", "result": "decrease"}, {"measurement": "NRAMP2 expression", "setting": "hNRAMP2; U2OS cells, high iron (FIG. 7A)", "result": "decreased"}, {"measurement": "West Nile virus infection", "setting": "West Nile virus", "result": "no effect"}, {"measurement": "VEE infection", "setting": "[3]", "result": "sensitive"}, {"measurement": "Ross River virus infection", "setting": "Ross River virus", "result": "insensitive"}, {"measurement": "VSV infection", "setting": "[4]", "result": "no effect"}, {"measurement": "NRAMP2 co-precipitation with Sindbis virus", "setting": "Sindbis virus / NRAMP2", "result": "lost"}, {"measurement": "Sindbis virus binding (streptavidin precipitation, immunoblot)", "setting": "Sindbis virus / NRAMP2", "result": "attenuated"}, {"measurement": "reduction in virus binding to iron-treated cells compared to controls", "setting": "Sindbis virus [5]", "result": "~17", "unit": "fold"}]}
